From US20160355530A1, “HEPATITIS C INHIBITORS AND USES THEREOF” (AbbVie Inc., priority 2010, published 2016) come the findings set out here.

Usually IC50 stands for the concentration that inhibits the measured activity by half. As a reminder, the EC50 is the midpoint of the concentration-response curve.

Where two headings read alike, the source gives them in different places. A value given as a limit tells only on which side of the number the result lay.

The target of experiment [1] is T1, HCV NS5B polymerase 1a-H77-C316Y (Hepatitis C virus genotype 1a, UniProt P27958, C2736Y).
T1 construct: six-histidine tag; made in house; host or cells: E. coli
The experiment can be described thus: biochemical. Details: species or system HCV genotype 1a. An outline of the steps:
(§1)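 Recombinant NS5B (residues 1–570, His-tagged, E. coli-expressed) copied 5 nM of a 2.1 kb HCV 1b negative-strand 3′-end RNA template with 20 μM CTP, 20 μM ATP and 0.284 μM [3H]UTP for 3 h at 30 °C. Spermine-precipitated RNA was filter-captured and counted, and IC50 was fitted by nonlinear regression.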

In experiment [2] the target is T2, HCV NS5B polymerase 1a-H77 (Hepatitis C virus genotype 1a, UniProt P27958).
T2 construct: six-histidine tag; made in house; host or cells: E. coli
The experiment can be described thus: biochemical. Further details: species or system HCV genotype 1a. The note with it: enzyme, strain 1a H77; read-out: HCV Polymerase Strain 1a H77 IC50. An outline of the steps:
as §1

For experiment [3], the system named is HCV NS5B polymerase 1a-H77-C316Y. The experiment can be described thus: biochemical. Further details: species or system HCV genotype 1a. The note with it: ratio of enzyme IC50s, 1a H77-C316Y / 1a H77. An outline of the steps: as §1
Experiment [4] has as its system chimeric replicon with 2a-J6CF-derived NS5B. The experiment is described as follows: microbe, parasite or virus in culture. The note with it: Hepatitis C virus, read-out: 2a chimera 5% FBS EC50. It is filed as cell-based, HCV genotype 2a.
Experiment [5] has as its system HCV 1a-H77 subgenomic replicon. The experiment is described as follows: microbe, parasite or virus in culture. The note with it: Hepatitis C virus, stable replicon. Format: cell-based, HCV genotype 1a.
The test system of experiment [6] is chimeric replicon with genotype 4a NS5B. The experiment can be described thus: microbe, parasite or virus in culture. It is filed as cell-based, HCV genotype 4a. The note with it: Hepatitis C virus, read-out: 4a chimera 5% FBS EC50.
The subject of experiment [7] is chimeric replicon with genotype 2b NS5B. The experiment is described as follows: microbe, parasite or virus in culture. The note with it: Hepatitis C virus, read-out: 2b chimera 5% FBS EC50. It is filed as cell-based, HCV genotype 2b.
The target in experiment [8] is T3, HCV NS5B polymerase 1b BK strain (Hepatitis C virus genotype 1b, UniProt P26663).
T3 construct: six-histidine tag; made in house; host or cells: E. coli
The experiment can be described thus: HCV NS5B polymerase enzymatic inhibition assay, strain 1b BK. Format: biochemical. The note with it: enzyme, strain 1b BK; read-out: HCV Polymerase Strain 1b BK IC50. An outline of the steps: as §1

For experiment [9], the system named is chimeric replicon with genotype 3a NS5B. The experiment is described as follows: microbe, parasite or virus in culture. It is filed as cell-based, HCV genotype 3a. The note with it: Hepatitis C virus, read-out: 3a chimera 5% FBS EC50.
Experiment [10] has as its system HCV 1b-BB7 subgenomic replicon. The experiment can be described thus: microbe, parasite or virus in culture. It is filed as cell-based, HCV genotype 1b. The note with it: Hepatitis C virus, stable replicon. A general note: Replicon systems follow genome replication, usually without infectious particles.
Where [11] appears, read: 5% FBS, absence of human plasma, read-out: Stable Replicon 1a H77 5% FBS EC50.
[12] abbreviates: strain 1a H77, 5% FBS + 40% human plasma, read-out: 1a H77 5% FBS + 40% Human Plasma EC50.
Setting [13] is: strain 1a H77, 5% FBS, no human plasma, read-out: 1a H77 5% FBS EC50.
[14] abbreviates: strain 1a H77, 5% FBS, read-out: 1a H77 5% FBS EC50.
Setting [15] is: strain 1b BB7, 5% FBS + 40% human plasma, read-out: 1b BB7 5% FBS + 40% Human Plasma EC50.
[16] abbreviates: strain 1b BB7, 5% FBS, no human plasma, read-out: 1b BB7 5% FBS EC50.
Setting [17] is: strain 1b BB7, 5% FBS, read-out: 1b BB7 5% FBS EC50.

T1 sequence (P27958 2421-2990 C2736Y): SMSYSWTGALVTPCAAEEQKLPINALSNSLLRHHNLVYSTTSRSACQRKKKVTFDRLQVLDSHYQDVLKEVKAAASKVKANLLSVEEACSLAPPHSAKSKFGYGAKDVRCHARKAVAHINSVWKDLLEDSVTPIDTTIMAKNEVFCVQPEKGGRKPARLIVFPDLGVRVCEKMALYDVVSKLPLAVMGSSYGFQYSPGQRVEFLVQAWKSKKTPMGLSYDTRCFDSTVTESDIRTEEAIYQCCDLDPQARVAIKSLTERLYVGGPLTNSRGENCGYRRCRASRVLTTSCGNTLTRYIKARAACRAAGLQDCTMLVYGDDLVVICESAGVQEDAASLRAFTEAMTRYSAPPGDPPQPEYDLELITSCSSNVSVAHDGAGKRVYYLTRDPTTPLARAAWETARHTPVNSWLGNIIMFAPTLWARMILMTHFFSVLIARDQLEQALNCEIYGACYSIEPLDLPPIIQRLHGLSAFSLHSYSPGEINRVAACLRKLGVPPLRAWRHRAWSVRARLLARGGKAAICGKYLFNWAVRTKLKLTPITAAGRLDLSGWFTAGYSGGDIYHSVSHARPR
T3 sequence (P26663 2420-2989): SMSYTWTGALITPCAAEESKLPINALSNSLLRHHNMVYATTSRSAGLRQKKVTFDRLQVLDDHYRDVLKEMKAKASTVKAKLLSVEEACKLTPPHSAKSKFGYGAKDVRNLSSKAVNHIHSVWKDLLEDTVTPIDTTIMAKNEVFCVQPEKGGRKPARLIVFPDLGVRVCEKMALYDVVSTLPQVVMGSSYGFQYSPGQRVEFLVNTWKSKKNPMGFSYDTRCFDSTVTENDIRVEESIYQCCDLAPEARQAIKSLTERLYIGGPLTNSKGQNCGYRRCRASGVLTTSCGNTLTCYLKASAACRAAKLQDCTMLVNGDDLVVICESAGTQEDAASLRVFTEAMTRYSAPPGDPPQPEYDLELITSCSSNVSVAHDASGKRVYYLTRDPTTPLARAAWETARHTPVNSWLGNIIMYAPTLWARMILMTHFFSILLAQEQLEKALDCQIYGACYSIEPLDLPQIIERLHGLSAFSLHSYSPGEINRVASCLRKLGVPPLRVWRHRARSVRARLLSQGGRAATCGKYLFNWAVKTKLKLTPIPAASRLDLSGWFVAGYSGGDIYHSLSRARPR
T2 sequence (P27958 2421-2990): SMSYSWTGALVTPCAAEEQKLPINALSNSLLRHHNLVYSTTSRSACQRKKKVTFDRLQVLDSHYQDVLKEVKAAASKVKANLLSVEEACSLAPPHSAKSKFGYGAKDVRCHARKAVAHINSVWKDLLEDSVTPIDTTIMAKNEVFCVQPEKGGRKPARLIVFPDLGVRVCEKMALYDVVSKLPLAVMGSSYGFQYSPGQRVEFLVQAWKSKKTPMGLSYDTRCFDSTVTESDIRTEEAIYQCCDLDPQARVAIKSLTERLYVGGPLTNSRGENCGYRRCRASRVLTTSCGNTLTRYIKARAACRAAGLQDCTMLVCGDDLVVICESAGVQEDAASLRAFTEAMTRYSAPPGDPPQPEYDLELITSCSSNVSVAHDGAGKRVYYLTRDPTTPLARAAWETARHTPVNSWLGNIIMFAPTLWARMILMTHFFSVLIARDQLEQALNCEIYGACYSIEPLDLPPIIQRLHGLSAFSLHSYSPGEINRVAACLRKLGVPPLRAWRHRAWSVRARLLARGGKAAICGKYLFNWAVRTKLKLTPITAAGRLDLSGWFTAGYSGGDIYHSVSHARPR

In the case of `C=CCN(c1cc2oc(-c3ccc(F)cc3)c(-c3ncc[nH]3)c2cc1C1CC1)S(C)(=O)=O` [Example 57, N-allyl-N-[5-cyclopropyl-2-(4-fluorophenyl)-3-(1H-imidazol-2-yl)-1-benzofuran-6-yl]methanesulfonamide], the IC50 came out at 0.232 µM in experiment [1], 0.003 µM in experiment [2] and 0.011 µM in experiment [8]. Further, in experiment [3], the “C316Y/1a Fold Resistance” value amounted to 77 fold. Further, the EC50 in experiment [4] was found to be 0.0515 µM; in [5] (setting [11]), 0.0352 µM; in [5] (setting [12]), 0.306 µM; in [5] (setting [13]), 0.0352 µM; in [5] (setting [14]), 0.0352 µM; in [6] it was 0.138 µM. The EC50 in experiment [7] worked out at 0.0724 µM; in experiment [9], 0.0091 µM; in experiment [10] (setting [15]), 0.069 µM; in experiment [10] (setting [16]) it was 0.0177 µM; in experiment [10] (setting [17]), 0.0177 µM.
For `CS(=O)(=O)N(CCCN1CCOCC1)c1cc2oc(-c3ccc(F)cc3)c(-c3ncc[nH]3)c2cc1C1CC1` [Example 60, N-[5-cyclopropyl-2-(4-fluorophenyl)-3-(1H-imidazol-2-yl)-1-benzofuran-6-yl]-N-[3-(morpholin-4-yl)propyl]methanesulfonamide], the figures for the IC50 in experiment [1], in [2] and in [8] were 0.191 µM, 0.0112 µM and 0.02 µM, respectively. For the same molecule, the “C316Y/1a Fold Resistance” value in experiment [3] is 17 fold. Further, the EC50 in [4] was 0.0447 µM; in [5] (setting [11]), 0.02 µM; in [5] (setting [12]) it was 0.152 µM; in experiment [5] (setting [13]) it was 0.02 µM; in experiment [5] (setting [14]), 0.02 µM; in experiment [6] it was 0.0648 µM. Moreover, the EC50 came out at 0.0796 µM in [7]; 0.0081 µM in experiment [9]; 0.0995 µM in [10] (setting [15]); 0.0086 µM in experiment [10] (setting [16]); 0.0086 µM in experiment [10] (setting [17]).
In the case of `CS(=O)(=O)N(CCCc1noc(=S)[nH]1)c1cc2oc(-c3ccc(F)cc3)c(C3=NOCCN3)c2cc1C1CC1` [Example 183, N-[5-cyclopropyl-3-(5,6-dihydro-4H-1,2,4-oxadiazin-3-yl)-2-(4-fluorophenyl)-1-benzofuran-6-yl]-N-[3-(5-thioxo-4,5-dihydro-1,2,4-oxadiazol-3-yl)propyl]methanesulfonamide], the half-maximal inhibitory concentration (IC50) in [1] was determined as 0.022 µM; in [2], 0.006 µM; in experiment [8] it was 0.039 µM. Moreover, the “C316Y/1a Fold Resistance” value in experiment [3] is 4 fold. Besides, the EC50 was 1 µM in experiment [4]; 0.104 µM in experiment [5] (setting [11]); 2.06 µM in experiment [5] (setting [12]); 0.104 µM in experiment [5] (setting [13]); 0.104 µM in [5] (setting [14]); > 1 µM in [6]. Besides, the EC50 in [7] is 1 µM; in [9] it was 0.306 µM; in [10] (setting [15]) it was 2.2 µM; in [10] (setting [16]), 0.088 µM; in experiment [10] (setting [17]) it was 0.088 µM.
For `CS(=O)(=O)N(CCCc1nnn[nH]1)c1cc2oc(-c3ccc(F)cc3)c(-c3ncc[nH]3)c2cc1C1CC1` [Example 174, N-[5-cyclopropyl-2-(4-fluorophenyl)-3-(1H-imidazol-2-yl)-1-benzofuran-6-yl]-N-[3-(1H-tetrazol-5-yl)propyl]methanesulfonamide], the IC50 in experiment [1] is 0.04 µM; in experiment [2], 0.0035 µM; in experiment [8] it was 0.0186 µM. In addition, the “C316Y/1a Fold Resistance” value in [3] turned out to be 12 fold. The EC50 in experiment [4] is 1 µM; in [5] (setting [11]), 0.32 µM; in experiment [5] (setting [12]) it was 4.78 µM; in experiment [5] (setting [13]), 0.32 µM; in experiment [5] (setting [14]), 0.32 µM; in experiment [6], > 1 µM. For the same molecule, the concentration for a half-maximal effect (EC50) came out at 1 µM in experiment [7]; 0.29 µM in experiment [9]; 3.69 µM in [10] (setting [15]); 0.192 µM in [10] (setting [16]); 0.192 µM in experiment [10] (setting [17]).
Consider `CC(=O)OCCCCCN(c1cc2oc(-c3ccc(F)cc3)c(-c3ncc[nH]3)c2cc1C1CC1)S(C)(=O)=O` [Example 46, 5-{[5-cyclopropyl-2-(4-fluorophenyl)-3-(1H-imidazol-2-yl)-1-benzofuran-6-yl](methylsulfonyl)amino}pentyl acetate], for which the IC50 came out at 0.098 µM in experiment [1], 0.0045 µM in [2] and 0.011 µM in experiment [8]. Also, the “C316Y/1a Fold Resistance” value in [3] was 22 fold. Besides, the concentration giving a half-maximal response (EC50) in experiment [4] came to 0.0275 µM; in experiment [5] (setting [11]), 0.0045 µM; in [5] (setting [12]), 0.112 µM; in experiment [5] (setting [13]), 0.0045 µM; in experiment [5] (setting [14]), 0.0045 µM; in experiment [6] it was 0.0311 µM. The EC50 stood at 0.0237 µM in [7]; 0.0027 µM in experiment [9]; 0.036 µM in [10] (setting [15]); 0.0047 µM in experiment [10] (setting [16]); 0.0046 µM in experiment [10] (setting [17]).
Regarding `CS(=O)(=O)N(CCCN1CCCC1)c1cc2oc(-c3ccc(F)cc3)c(C3=NOCCN3)c2cc1C1CC1` [Example 132, N-[5-cyclopropyl-3-(5,6-dihydro-4H-1,2,4-oxadiazin-3-yl)-2-(4-fluorophenyl)-1-benzofuran-6-yl]-N-[3-(pyrrolidin-1-yl)propyl]methanesulfonamide], the values for the IC50 in experiment [1], in [2] and in experiment [8] were 0.934 µM, 0.022 µM and 0.246 µM, respectively. In addition, the “C316Y/1a Fold Resistance” value in experiment [3] is 42 fold. In addition, the EC50 is 0.244 µM in [4]; 0.142 µM in experiment [5] (setting [11]); 0.313 µM in [5] (setting [12]); 0.142 µM in experiment [5] (setting [13]); 0.142 µM in experiment [5] (setting [14]); > 1 µM in experiment [6]. Further, the EC50 stood at 0.428 µM in [7]; 0.093 µM in [9]; 0.122 µM in experiment [10] (setting [15]); 0.04 µM in [10] (setting [16]); 0.04 µM in experiment [10] (setting [17]).
Take `CS(=O)(=O)N(CCC/C(N)=N/O)c1cc2oc(-c3ccc(F)cc3)c(C3=NOCCN3)c2cc1C1CC1` [Example 181, (1Z)-4-{[5-cyclopropyl-3-(5,6-dihydro-4H-1,2,4-oxadiazin-3-yl)-2-(4-fluorophenyl)-1-benzofuran-6-yl](methylsulfonyl)amino}-N′-hydroxybutanimidamide]: the results for the IC50 in experiment [1], in experiment [2] and in experiment [8] were 0.103 µM, 0.01 µM and 0.056 µM, respectively. For the same molecule, the “C316Y/1a Fold Resistance” value in experiment [3] was determined as 10 fold. Besides, the EC50 is 0.785 µM in experiment [4]; 0.0557 µM in experiment [5] (setting [11]); 0.611 µM in experiment [5] (setting [12]); 0.0557 µM in experiment [5] (setting [13]); 0.0557 µM in experiment [5] (setting [14]); 0.594 µM in experiment [6]. Also, the EC50 in [7] is 0.548 µM; in experiment [9] it was 0.108 µM; in experiment [10] (setting [15]), 0.702 µM; in [10] (setting [16]), 0.046 µM; in experiment [10] (setting [17]), 0.046 µM.
In the case of `CS(=O)(=O)N(CCCCC(F)=C(F)F)c1cc2oc(-c3ccc(F)cc3)c(C3=NOCCN3)c2cc1C1CC1` [Example 120, N-[5-cyclopropyl-3-(5,6-dihydro-4H-1,2,4-oxadiazin-3-yl)-2-(4-fluorophenyl)-1-benzofuran-6-yl]-N-(5,6,6-trifluorohex-5-en-1-yl)methanesulfonamide], the IC50 in [1] is 0.028 µM; in [2], 0.005 µM; in experiment [8] it was 0.047 µM. Also, the “C316Y/1a Fold Resistance” value in [3] turned out to be 6 fold. The EC50 in [4] stood at 0.125 µM; in experiment [5] (setting [11]), 0.0175 µM; in experiment [5] (setting [12]), 0.19 µM; in [5] (setting [13]) it was 0.0175 µM; in experiment [5] (setting [14]) it was 0.0175 µM; in experiment [6], 0.082 µM. Besides, the EC50 came out at 0.157 µM in experiment [7]; 0.036 µM in experiment [9]; 0.189 µM in [10] (setting [15]); 0.018 µM in experiment [10] (setting [16]); 0.018 µM in [10] (setting [17]).
